The values that follow are results of earlier work, collected in patent publication US9034622B2, “Preparation for photodynamic control of microorganisms and use thereof” (priority 2004, dated 2015).

In one series the test system is isolated perfused heart. As to conditions: perfusate enriched with GSH.
The test system of series [1] is reperfusion-induced damage or the extent of the myocardial infarct. As to conditions: intravenous glutathione administration; pigs pre-treated with glutathione synthesis inhibitor; ischemia/reperfusion.

SMILES strings stand for the structures.

For `N[C@@H](CCC(=O)N[C@@H](CS)C(=O)NCC(=O)O)C(=O)O` [glutathione, Glutathione], the “recovery of ventricle function after ischemia and reperfusion” value in the series with isolated perfused heart was “better recovery of ventricle function”. In series [1], the “reperfusion-induced damage or extent of the myocardial infarct” value is “could be reduced”.
